Data published in patent US8440718B2, “Modulation of inflammation related to columnar epithelia” (The Brigham and Women's Hospital, Inc., priority 1991, dated 2013).
“And” between values parts separate entries of the source, which are not always exact repeats. Equal values may be shown once.

Key:
[1] = system: human PMN migration across T84 epithelial monolayers; assay: PMN transepithelial migration assay, apical-to-basolateral direction, fMLP gradient, myeloperoxidase readout; format: cell-based
Experimental: (§1) Cell culture Approximately 350 epithelial monolayers were used for these studies. T84 intestinal epithelial cells (passages 70-95) were grown and maintained as confluent monolayers on collagen coated permeable support. Monolayers were grown on 0.33 cm^2 ring-supported polycarbonate filters (Costar Corp., Cambridge, Mass.) and utilized 6-14 days after plating as described in Example 2. Transepithelial resistance to passive ion flow was measured as described in Parkos C. A., et al. (1991). J. Clin. Invest. 88: 1605-1612); and Parkos C. A., et al. (1992). J. Cell. Biol. 117: 757-764). Inverted monolayers used to study migration of PMN in the basolateral-to-apical direction were constructed as described in Parkos C. A., et al. (1991). J. Clin. Invest. 88:1605-1612).
(§2) Migration assay: The PMN transepithelial migration assay has been detailed in Nash S., et al. (1987). J. Clin. Invest. 80: 1104-1113; Nash S., et al. (1991). J. Clin. Invest 87: 1474-1477); Parkos C. A., et al. (1991). J. Clin. Invest. 88: 1605-1612); and Parkos C. A., et al. (1992). J. Cell. Biol. 117: 757-764. Briefly, human PMN were isolated from normal human volunteers and suspended in modified HBSS (without Ca^2+ and Mg^2+, with 10 mM Hepes, pH 7.4, Sigma) at a concentration of 5×10^7/ml. Prior to addition of PMN, T84 monolayers were extensively rinsed in HBSS to remove residual serum components. Migration assays were performed by the addition of PMN (40 μl) to HBSS ([…]) in the upper chambers after chemoattractant (1 μM fMLP in HBSS) was added to the opposing (lower) chambers. Unless otherwise indicated, PMN were not washed free of LXA4 prior to addition to monolayers, and therefore, a five-fold dilution of lipoxin was present during the migration assay. For apical-to-basolateral migration experiments, PMN (2×10^6) were added at time 0. Migration in the basolateral-to-apical direction, while qualitatively similar, is substantially more efficient than in the apical-to-basolateral direction. (Parkos C. A., et al. (1991). J. Clin. Invest. 88: 1605-1612). Therefore, 5-fold fewer PMN (4×10^5) were added when migration proceeded in the basolateral-to-apical direction in order that baseline migration signals be approximately equivalent in both directions. (Parkos C. A., et al. (1991). J. Clin. Invest. 88: 1605-1612). Migration was allowed to proceed for 120 minutes, unless otherwise noted. All PMN transepithelial migration experiments were performed in a 37° C. room to ensure that epithelial monolayers, solutions, plasticware, etc., were maintained at uniform 37° C. temperature.
(§3) Migration was quantitated by assaying for the PMN azurophilic granule marker myeloperoxidase (MPO) as described previously (Parkos C. A., et al. (1991). J. Clin. Invest 88: 1605-1612). Following each migration assay, non-adherent PMN were extensively washed from the surface of the monolayer and PMN cell equivalents (PMN CE), estimated from a standard curve, were assessed as the number of PMN's associated with the monolayer, the number which had completely traversed the monolayer (ie. across the monolayer into the reservoir bath), as well as the total number of transmigrating PMN (the sum of monolayer and reservoir-associated PMN).
(§4) Data Presentation: Individual experiments were performed using large numbers of uniform groups of monolayers and PMN from individual blood donors on individual days. PMN isolation was restricted to five different blood donors (repetitive donations) over the course of these studies. Myeloperoxidase assay data were compared by two-factor analysis of variance (ANOVA) or by comparison of means using Student's t-Test PMN migration results are represented as PMN CE derived from a daily standard PMN dilution curve. Monolayer-associated PMN are represented as the number of PMN CE per monolayer and reservoir-associated PMN (ie. PMN which had completely traversed the monolayer into the lower chamber) are represented as the number of PMN CE/ml (total volume of 1 ml). […]

[2] = target: lipoxin binding sites on human PMN; details: reported; cited from earlier work
[3] = system: human PMN migration across T84 epithelial monolayers; assay: Effect of inhibitors on baseline and LXA4-elicited PMN transepithelial migration, apical-to-basolateral; format: cell-based; details: for LXA4-elicited increase in fMLP driven PMN migration over control: LXA4 10 nM
[4] = system: human PMN migration across inverted T84 epithelial monolayers; assay: PMN transepithelial migration assay, basolateral-to-apical direction (inverted monolayers), fMLP gradient, myeloperoxidase readout; format: cell-based
Experimental: as §1, §2, §3, §4

[5] = system: human PMN migration across T84 epithelial monolayers; assay: PMN chemotactic capacity toward LXA4 placed in lower chamber, apical-to-basolateral; format: cell-based; details: compared to 1 μM fMLP
Experimental: as §2, §3
To investigate whether LXA4 could serve to stimulate PMN migration in this assay system, dilutions of LXA4 in the range of 0.01-10 nM were placed in the lower chamber of migration wells. Untreated PMN's were added to the upper chamber and assessed for chemotactic capacity toward LXA4 in the apical-to-basolateral direction. […]

[6] = 10 nM LXA4, 30 min pre-exposure
[7] = PMN pre-exposed 10 nM LXA4 15 min 37°C, 1 μM fMLP, 120 min

**Q.** Which results are given for CCCCC[C@H](O)/C=C/C=C\C=C\C=C\[C@@H](O)[C@@H](O)CCCC(=O)O (relative stereo) [LXA4, (5S, 6R, 15S)-trihydroxy-7,9,13-trans-11-cis-eicosatetraenoic acid]?
**A.** PMN in lower reservoirs ([1]; 0.001 nM LXA4, 15 min pre-exposure 37°C): 13.71±4.14 ×10^4 PMN CE/ml; PMN in lower reservoirs ([1]; 0.01 nM LXA4, 15 min pre-exposure 37°C): 14.11±3.01 ×10^4 PMN CE/ml; PMN in lower reservoirs ([1]; 0.1 nM LXA4, 15 min pre-exposure 37°C): 15.43±4.65 ×10^4 PMN CE/ml; PMN in lower reservoirs ([1]; 1 nM LXA4, 15 min pre-exposure 37°C): 19.96±4.83 ×10^4 PMN CE/ml; total PMN migration after LXA4 washout ([1]; 10 nM LXA4 15 min, PMN then washed twice in HBSS): 14.5±0.3 ×10^4 PMN CE/ml; total PMN migration (total MPO activity) ([1]; 10 nM LXA4 15 min, harvested 45 min after addition of PMN): 1.51±0.12 ×10^4 PMN CE/ml; fold increase in the total number of transmigrating PMN ([1]; 10 nM LXA4 15 min vs vehicle control): ~2 fold; total PMN migration ([1]; 10 nM LXA4, 0 min pre-exposure): 16.61±3.56 ×10^4 total PMN CE/ml; total PMN migration relative to vehicle control ([1]; 10 nM LXA4, 45 and 60 minutes pre-exposure): returned to vehicle control values; increase in total PMN migration compared to vehicle controls ([1]; 10 nM LXA4, 5 min pre-exposure): 50%; reservoir-associated PMN ([1]; 10 nM LXA4, 5 min pre-exposure): 18.02±3.35 ×10^4 PMN CE/ml; increase in total PMN migration compared to vehicle controls ([1]; 10 nM LXA4, 15 min pre-exposure): 80% and 68%; increase in total PMN migration compared to vehicle controls [1, 6]: 51%; reservoir-associated PMN [1, 6]: 19.64±3.54 ×10^4 PMN CE/ml; monolayer-associated PMN [1, 7]: 6.93±1.77 ×10^4 PMN CE/monolayer and 7.55±0.71 ×10^4 PMN CE/monolayer; reservoir-associated PMN (completely traversed the monolayer) [1, 7]: 11.02±2.91 ×10^4 PMN CE/ml and 19.96±3.18 ×10^4 PMN CE/ml and 20.38±4.83 ×10^4 PMN CE/ml; total number of transmigrating PMN ([1]; PMN pre-exposed 10 nM LXA4 15 min, LXA4 present, 1 μM fMLP, 120 min): 18.6±1.0 ×10^4 PMN CE/ml and 17.95±2.15 ×10^4 PMN CE/ml; Kd [2]: 0.5 nM; LXA4-elicited increase in fMLP driven PMN migration over control ([3]; PMN pre-exposed to indomethacin 50 μM): 61±11%; LXA4-elicited increase in fMLP driven PMN migration over control ([3]; without indomethacin): 54±7%; LXA4-elicited increase in PMN migration compared to control ([3]; LXA4 10 μM (so in the source), pertussis toxin experiment): 46±3%; inhibition of PMN migration, basolateral-to-apical (total MPO activity) ([4]; 10 nM, 15 min pre-incubation 37°C, 1 μM fMLP, 120 min): 28±4% and 25%; transmigrated (reservoir) PMN, basolateral-to-apical ([4]; PMN pre-exposed 1 nM LXA4 15 min): 6.99±1.33 ×10^4 PMN/ml; monolayer-associated PMN, basolateral-to-apical ([4]; PMN pre-exposed 10 nM LXA4 15 min): 2.00±0.31; PMN migration toward LXA4, % of fMLP-induced PMN migration ([5]; 0.01 nM LXA4 in lower chamber): 6±2.1%; PMN migration toward LXA4, % of fMLP-induced PMN migration ([5]; 0.1 nM LXA4 in lower chamber): 9±3.6%; PMN migration toward LXA4, % of fMLP-induced PMN migration ([5]; 1.0 nM LXA4 in lower chamber): 6±2.4%; PMN migration toward LXA4, % of fMLP-induced PMN migration ([5]; 10 nM LXA4 in lower chamber): 12±1.4%
